From ChEMBL document CHEMBL4825746, “Combination Therapy Comprising A2A/A2B and PD-1/PD-L1 Inhibitors for Treating Cancer” (ACS Med Chem Lett, 2021) come the findings set out here.

pEC50, pKi: −log10 of the molar value. Some results are limits rather than exact numbers.

One experiment addresses Adenosine receptor A2a (Homo sapiens, UniProt P29274). Description: Displacement of L0058RED from adenosine A2A receptor (unknown origin) in Tag-lite labeled cells measured after 45 mins by fluorescence based HTRF assay. In kind it is cell-based. (In general: In TR-FRET formats the signal depends on donor and acceptor labels being close together.)
For a further experiment, the target named is T1, Adenosine receptor A2b (Homo sapiens, UniProt P29275).
T1 sequence (P29275 whole entry): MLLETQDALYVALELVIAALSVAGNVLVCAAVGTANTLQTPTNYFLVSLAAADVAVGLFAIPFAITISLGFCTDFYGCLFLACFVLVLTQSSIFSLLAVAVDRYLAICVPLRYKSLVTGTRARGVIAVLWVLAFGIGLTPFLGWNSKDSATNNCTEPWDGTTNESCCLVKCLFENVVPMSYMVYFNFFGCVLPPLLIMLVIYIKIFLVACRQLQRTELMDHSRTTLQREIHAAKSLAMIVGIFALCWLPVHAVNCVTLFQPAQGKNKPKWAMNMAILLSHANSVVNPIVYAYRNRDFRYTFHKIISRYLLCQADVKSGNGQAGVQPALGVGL
Description: Inhibition of human adenosine A2B receptor expressed in HEK293 cells assessed as reduction in NECA-stimulated cAMP accumulation preincubated for 30 mins followed by NECA stimulation for 60 mins by FRET assay. In kind it is functional, cell-based.

Chain of Adenosine receptor A2a (P29274 whole entry): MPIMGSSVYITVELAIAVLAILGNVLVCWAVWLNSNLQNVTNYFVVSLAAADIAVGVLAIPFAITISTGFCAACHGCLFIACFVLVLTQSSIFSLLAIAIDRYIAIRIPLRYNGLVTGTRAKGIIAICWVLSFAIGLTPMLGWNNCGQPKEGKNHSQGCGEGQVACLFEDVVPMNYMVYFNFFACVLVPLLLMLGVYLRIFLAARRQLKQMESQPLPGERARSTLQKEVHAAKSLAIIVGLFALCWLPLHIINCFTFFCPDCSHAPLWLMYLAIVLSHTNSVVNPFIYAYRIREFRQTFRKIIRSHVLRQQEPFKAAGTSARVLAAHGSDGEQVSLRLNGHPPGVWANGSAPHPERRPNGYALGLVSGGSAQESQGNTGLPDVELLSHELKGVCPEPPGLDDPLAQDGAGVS

By pKi is commonly meant −log10 of the Ki, conventionally taken in molar units. Higher therefore signals a low Ki. In general, pEC50 refers to −log10 of the EC50, conventionally taken in molar units. In the case of `Cc1ncoc1-c1c(-c2cccc(C#N)c2)nc(N)c2nc(C(N)c3c(F)cccc3F)nn12` (configuration not stated), the pKi on Adenosine receptor A2a was not below 8.00. At Adenosine receptor A2b, the pEC50 was not below 8.00.

As for `N#Cc1cccc(-c2nc(N)n3nc(C(O)c4c(F)cccc4F)nc3c2C#N)c1F` (configuration not stated), the pKi on Adenosine receptor A2a is not below 8.00. The pEC50 at Adenosine receptor A2b was not below 8.00.

Regarding `N#Cc1cccc(-c2nc(N)n3nc(Cc4cccnc4)nc3c2-c2ccncn2)c1`, at Adenosine receptor A2a, the pKi is not below 8.00. The pEC50 on Adenosine receptor A2b was not below 8.00.

Molecule `N#Cc1cccc(-c2cc3nc(C(O)c4c(F)cccc4F)nn3c(N)n2)c1F` (configuration not stated) gave a pKi on Adenosine receptor A2a not below 8.00. Further, the pEC50 at Adenosine receptor A2b is not below 8.00.

As to `Cn1nccc1-c1c(-c2cccc(C#N)c2F)nc(N)c2nn(Cc3ccccn3)nc12`, at Adenosine receptor A2a, the pKi was not below 8.00. Also, on Adenosine receptor A2b, the pEC50 was not below 8.00.

On Adenosine receptor A2a, `N#Cc1cccc(-c2nc(N)c3nn(Cc4ncccc4F)nc3c2-c2ccncc2)c1` gave a pKi not below 8.00. Moreover, at Adenosine receptor A2b, the pEC50 is not below 8.00.
